Assay results as given in patent US9266905B2, “Color material and method for producing the same” (DAI NIPPON PRINTING CO., LTD., priority 2011, dated 2016).
One block for each compound: values may come before it.

What was measured:
[1] = Measurement of decomposition point (TG-DTA); type: physicochemical; conditions: TG-DTA up to 800° C. at 10° C./minute, extrapolation temperature of the peak of the TG curve
Method: About 5 mg of each of color materials A to S of Examples 1 to 9 and Comparative examples 1 to 10, was put in a quartz pan, and measured by means of a differential thermogravimetric analyzer (TG-DTA) (product name; TG8120; manufactured by: Rigaku Corporation) up to 800° C. at a heating rate of 10° C./minute, placing alumina on the quartz pan as a reference. The extrapolation temperature of the peak of the thus-obtained TG curve was used as the decomposition point. The temperature of the decomposition point can be used as an indicator of heat resistance.

[2] = Measurement of thermal stability (weight reduction rate, TG-DTA); type: physicochemical; conditions: heated to 230° C. at 10° C./minute, kept 60 minutes at 230° C.
Method: About 5 mg of each of color materials A to S of Examples 1 to 9 and Comparative examples 1 to 10, was put in a quartz pan and heated up to 230° C. at a heating rate of 10° C./minute, placing alumina on the quartz pan as a reference, by means of a differential thermogravimetric analyzer (TG-DTA) (product name; TG8120; manufactured by: Rigaku Corporation). After reaching 230° C., the temperature was kept for 60 minutes at 230° C. Then, a weight reduction rate was measured. The weight reduction rate was calculated by the following formula and can be used as an indicator of heat resistance. Weight reduction rate=(weight before heating−weight after heating)/weight before heating×100(%)

SMILES: CCN(CC)c1ccc(C(=C2C=CC(=[N+](CC)CC)C=C2)c2ccc(NCc3ccc(CNc4ccc(C(=C5C=CC(=[N+](CC)CC)C=C5)c5ccc(N(CC)CC)cc5)c5ccccc45)cc3)c3ccccc23)cc1 [Color material A]
Decomposition point ([1]; listed as A): 253 °C
Weight reduction rate ([2]; listed as A): −19.1%

SMILES: CCN(CC)c1ccc(C(=C2C=CC(=[N+](CC)CC)C=C2)c2ccc(NCc3ccc(CNc4ccc(C(=C5C=CC(=[N+](CC)CC)C=C5)c5ccc(N(CC)CC)cc5)c5ccccc45)cc3)c3ccccc23)cc1 [Color material B]
Decomposition point ([1]; listed as B): 258 °C
Weight reduction rate ([2]; listed as B): −10.7%

SMILES: CCN(CC)c1ccc(C(=C2C=CC(=[N+](CC)CC)C=C2)c2ccc(NCc3ccc(CNc4ccc(C(=C5C=CC(=[N+](CC)CC)C=C5)c5ccc(N(CC)CC)cc5)c5ccccc45)cc3)c3ccccc23)cc1 [Color material J]
Decomposition point ([1]; listed as J): 248 °C
Weight reduction rate ([2]; listed as J): −35.1%

SMILES: CCNc1ccc(C(=C2C=CC(=[N+](CC)CC)C=C2)c2ccc(N(CC)CC)cc2)c2ccccc12 [Color material K]
Decomposition point ([1]; listed as K): 237 °C
Weight reduction rate ([2]; listed as K): −32.8%

SMILES: CCNc1ccc(C(=C2C=CC(=[N+](CC)CC)C=C2)c2ccc(N(CC)CC)cc2)c2ccccc12 [Color material L]
Decomposition point ([1]; listed as L): 241 °C
Weight reduction rate ([2]; listed as L): −31.8%

SMILES: CCNc1ccc(C(=C2C=CC(=[N+](CC)CC)C=C2)c2ccc(N(CC)CC)cc2)c2ccccc12 [Color material N]
Decomposition point ([1]; listed as N): 251 °C
Weight reduction rate ([2]; listed as N): −38.3%

Continued, values first:

Decomposition point ([1]; listed as Q): 258 °C
Weight reduction rate ([2]; listed as Q): −30.1%
SMILES: CCNc1ccc(C(=C2C=CC(=[N+](CC)CC)C=C2)c2ccc(N(CC)CC)cc2)c2ccccc12 [Color material Q]

Decomposition point ([1]; listed as R): 259 °C
Weight reduction rate ([2]; listed as R): −30.5%
SMILES: CCNc1ccc(C(=C2C=CC(=[N+](CC)CC)C=C2)c2ccc(N(CC)CC)cc2)c2ccccc12 [Color material R]
